From article PMC7801115, “Preclinical in vitro screening of newly synthesised amidino substituted benzimidazoles and benzothiazoles” (Journal of Enzyme Inhibition and Medicinal Chemistry, 2021) come the findings set out here.

One data set relates to NCI-H358. Description: MTS cell viability (cytotoxicity) assay, 2D cell culture. Format: cell-based. Particulars: Homo sapiens; NCI-H358, 2D cell culture, 72 h, MTS; ±SD, N = 2; read-out: IC50 antitumor activity NCI-H358 2D. The method, then: (§1) Compounds are diluted 1:3. 500 nL (for 2 D cell culture) or 400 nL (for 3 D cell culture) of compound were transferred from mother plate to test plate by using Mosquito (TTP labtech). DMSO percentage in test concentrations was 0.5 − 1.0%. Starting concentration of the test compounds and standard compound doxorubicin was 50 µM (2 D cell culture) or 100 µM (3 D cell culture).
(§2) Cells were grown in 96 well cell star polystyrene plates. 10,000 cells/well were seeded in wells 4 h prior the treatment with different compounds concentrations and incubated for 72 h. A cell viability assay was performed according to the manufacturer’s instruction, using CellTiter 96 aqueous solution, MTS kit (Promega, Madison, WI, USA). After 0.5–2 h of cell incubation with MTS in 2 D cell culture, the plates were read using PE EnVision absorbance at 490 nm. […] Since we prefer homogeneous assays (mix and read procedures) and therefore MTS is more practical (one step less than MTT). MTS is more sensitive and accurate in comparison with MTT assay.
(§3) Calculation of IC50 data, curves and QC analysis is made by using Excel tools and GraphPadPrism software (La Jolla, CA), v. […] QC criteria parameters (Z', S:B, R2, HillSlope) were checked for every IC50 curve.

A further data set deals with HCC827. The data set is described as above. It counts as cell-based. Conditions: Homo sapiens; HCC827, 2D cell culture, 72 h, MTS; ±SD, N = 2; read-out: IC50 antitumor activity HCC827 2D. How it is done: as §1, §2, §3
A further data set concerns A549. The data set is described as above. It counts as cell-based. Conditions: Homo sapiens, A549, 2D cell culture, 72 h, ±SD, N = 2, read-out: IC50 antitumor activity A549 2D. How it is done:
as §1, §2, §3

In data set [1] the test system is P-glycoprotein (human MDR1). Put plainly: MDCKII-MDR1 permeability and P-glycoprotein substrate assay. Format: in vitro ADME, canine cells over-expressing human MDR1. Particulars: dog; for efflux ratio at 60 min, 10 µM: MDCK-MDR1, pH 7.4, without P-gp inhibitor; for Papp A→B at 60 min, 10 µM / Papp B→A at 60 min, 10 µM: MDCK-MDR1, pH 7.4, without P-gp inhibitor; for Papp A→B at 60 min, 10 µM: read-out: MDCKII-MDR1 Papp(A2B); for Papp B→A at 60 min, 10 µM: read-out: MDCKII-MDR1 Papp(B2A). The method, then: Permeability and P-glycoprotein substrate assessment was done on MDCKII-hMDR1, Madin-Darby canine epithelial cells over-expressing human MDR1 gene, coding for P-glycoprotein.
Cells were prepared for transport studies by seeding on 96-well cell culture inserts (Millipore, MA, USA) in a concentration of 0.25 × 10^6 cells per ml. The cells were fed with fresh medium 24 h post seeding and cultured to confluence for 3 days before use. On the day of experiment, the cell monolayers were washed and equilibrated with transport medium (DPBS, pH 7.4 containing 1% DMSO) with or without P-gp specific inhibitor, elacridar (2 µM) for 45 min (37 °C, 5% CO2, 95% humidity). Test compound solution consisted of test substance (10 μM) in D-PBS medium containing lucifer yellow (100 μM) and 1% DMSO. Transport assays were conducted in apical to basolateral (A2B) and basolateral to apical (B2A) directions, respectively. Monolayers were incubated with the compound solution for 60 min at 37 °C under gentle agitation. Apical and basolateral compartments were sampled at the end of the transport experiment, while donor solutions were also sampled at the beginning of the experiment in order to determine initial concentration. Test substance concentrations in both compartments were determined by LC-MS/MS. There were several controls used in the assay: 1) amprenavir (0.5 μM) served as a low permeable control, being also a P-gp substrate; 2) diclofenac (10 μM) was used as a high permeable control; 3) Lucifer yellow, a fluorescent marker for the paracellular membrane transport, was used as a control of cell monolayer integrity.
(§4) All ADME samples were analysed on a Sciex API 4000 or Sciex API4500 Triple Quadrupole Mass Spectrometer (Sciex, Framingham, MA, USA) coupled to a UHPLC System (Shimadzu Nexera X2; Shimadzu, Kyoto, Japan). Samples were injected onto an UPLC column (HALO2 C18, 2.1 × 20 mm, 2 µm or Phenomenex Luna Omega Polar C18, 30 × 2.1 mm, 1.6 µm) and eluted with a gradient at temperature of 50 °C. The mobile phase was composed of acetonitrile (with 0.1% formic acid) and 0.1% formic acid in deionised water. A total run time was 1 or 1.5 min, with the flow rate of 0.7 ml/min (under gradient conditions). A positive ion mode with turbo spray, an ion source temperature of 500 °C and a dwell time of 150 ms were utilised for mass spectrometric detection. Multiple reaction monitoring (MRM) was used at the specific transitions for each compound/control tested: compound 5c: 361.9 → 304.9; compound 5d: 344.8 → 287.9; compound 5e: 349.8 → 292.9; compound 5 g: 350.8 → 293.9; compound 5 h: 344.0 → 286.9; compound 6a: 276.9 → 220.0; compound 5 b: 319.0 → 262.0; compound 6 b: 302.1 → 245.1; compound 6c: 344.9 → 288.0; compound 6d: 333.0 → 276.0; compound 6e: 316.1 → 259.0; compound 6f: 327.1 → 270.0; compound 6 g: 377.1 → 320.1; testosterone: 289.3→ 97.1; propranolol: 260.1 → 182.8; caffeine: 195.2 → 138.1; acebutolol: 337.2 → 116.2, nicardipine: 480.2 → 315.0; verapamil: 455.4 → 165.1; amprenavir: 506.2 → 245.4; diclofenac: 296.1 → 213.7 or 296.2 → 215.3; eucatropine: 292.2 → 109.1; benfluorex: 352.1 → 230.3, and warfarin: 309.2 → 163.2

Data set [2] in a line: Plasma protein binding, equilibrium dialysis. Conditions: for fraction unbound at 4 h, 5 µM: equilibrium dialysis 4 h, 37 °C; for recovery at 4 h, 5 µM: recovery in PPB experiment (value in brackets). Format: in vitro ADME. How it is done: The extent of binding to plasma proteins was assessed using equilibrium dialysis method. Plasma (human and mouse) was spiked with test compounds and three controls (nicardipine and verapamil in both species, acebutolol in human and caffeine in mouse plasma) to obtain final concentration of 5 µM (0.5%DMSO). Hydrated membranes were inserted into equilibrium dialysis unit (HT Dialysis) according to manufacturer’s instructions. The dialysate side was then loaded with appropriate volume of buffer, while the same volume of spiked plasma was added into sample side of the well. Incubation lasted 4 h at 37 °C with gentle shaking. Afterwards, protein precipitation was done by mixing matrix matched aliquot of plasma or buffer with 3 volumes of MeCN/MeOH (2:1) mixture, containing internal standard (diclofenac). After centrifugation (at 4500 rpm, at 4 °C, for 30 min) resulting supernatants were subjected to LC-MS/MS.
as §4

[3] abbreviates: human plasma, read-out: PPB % bound, Human (converted).
The mark [4] stands for this setting: mouse plasma, read-out: PPB % bound, Mouse (converted).

Where two headings read alike, the source gives them in different places.

In the case of `c1ccc2cc(-c3nc4cc(C5=NCCCN5)ccc4[nH]3)ccc2c1` [Compound 6f, 2-(Naphthalene-2-yl)-5(6)–(3,4,5,6-tetrahydropyrimidin-1-ium-2-yl)benzimidazole chloride], the IC50 in the data set on NCI-H358, in the data set with HCC827 and in the data set with A549 was above 50 µM in each case. In addition, the efflux ratio (in general, a quotient of directional permeabilities that is used to spot active efflux) at 60 min, 10 µM in data set [1] was found to be 3.23. Besides, in data set [1], the Papp A→B at 60 min, 10 µM turned out to be 0.78 ×10⁻⁶ cm/s. Moreover, the Papp B→A at 60 min, 10 µM in data set [1] was 2.49 ×10⁻⁶ cm/s. Moreover, the fraction unbound at 4 h, 5 µM in data set [2] (setting [3]) is 0.19; in data set [2] (setting [4]), 0.12. The recovery at 4 h, 5 µM came out at 91% in data set [2] (human plasma) and 102% in data set [2] (mouse plasma).

For the molecule `c1ccc2c(-c3nc4ccc(C5=NCCCN5)cc4[nH]3)c[nH]c2c1` [Compound 6e, 2-(1H-Indol-3-yl)-5(6)–(3,4,5,6-tetrahydropyrimidin-1-ium-2-yl)benzimidazole chloride], the IC50 in the data set on NCI-H358, in the data set on HCC827 and in the data set on A549 was above 50 µM throughout. Besides, in data set [1], the efflux ratio at 60 min, 10 µM is 3.89. For the same molecule, the Papp A→B at 60 min, 10 µM in data set [1] was found to be 0.57 ×10⁻⁶ cm/s. In data set [1], the Papp B→A at 60 min, 10 µM was found to be 2.17 ×10⁻⁶ cm/s. In addition, the fraction unbound at 4 h, 5 µM in data set [2] (setting [3]) was 0.349; in data set [2] (setting [4]) it was 0.259. Further, the figures for the recovery at 4 h, 5 µM in data set [2] (human plasma) and in data set [2] (mouse plasma) were 81% and 91%, respectively.

Regarding `Cl.FC(F)(F)c1ccc(-c2nc3ccc(C4=NCCCN4)cc3s2)cc1` [Compound 5c, 2–(4-Trifluoromethylphenyl)-6–(3,4,5,6-tetrahydropyrimidin-1-ium-2-yl)benzothiazole chloride], the IC50 (in general, the point on the concentration scale where inhibition reaches its midpoint) in the data set on NCI-H358 was found to be 23 ± 0.79 µM; with HCC827, 7 ± 0.45 µM; in the data set with A549, 34 ± 8.65 µM. The efflux ratio at 60 min, 10 µM in data set [1] was above 200. In addition, in data set [1], the Papp A→B at 60 min, 10 µM was below 0.1 ×10⁻⁶ cm/s. In addition, the Papp B→A at 60 min, 10 µM in data set [1] was 21.5 ×10⁻⁶ cm/s. Besides, the fraction unbound at 4 h, 5 µM in data set [2] (setting [3]) is 0.03; in data set [2] (setting [4]) it was 0.025. Also, the recovery at 4 h, 5 µM in data set [2] (human plasma) is 89%; in data set [2] (mouse plasma) it was 86%.

As to `FC(F)(F)c1ccc(-c2nc3cc(C4=NCCCN4)ccc3[nH]2)cc1` [Compound 6c, 2–(4-Trifluoromethylphenyl)-5(6)–(3,4,5,6-tetrahydropyrimidin-1-ium-2-yl)benzimidazole chloride], the IC50 with NCI-H358, in the data set on HCC827 and in the data set on A549 was above 50 µM throughout. In data set [1], the efflux ratio at 60 min, 10 µM turned out to be 2.82. In data set [1], the Papp A→B at 60 min, 10 µM turned out to be 0.69 ×10⁻⁶ cm/s. Also, the Papp B→A at 60 min, 10 µM in data set [1] came to 1.93 ×10⁻⁶ cm/s. The fraction unbound at 4 h, 5 µM in data set [2] (setting [3]) was 0.144; in data set [2] (setting [4]), 0.13. Also, the figures for the recovery at 4 h, 5 µM in data set [2] (human plasma) and in data set [2] (mouse plasma) were 97% and 117%, respectively.

Turning to `N#Cc1ccc(-c2nc3cc(C4=NCCCN4)ccc3[nH]2)cc1` [Compound 6b, 2–(4-Cyanophenyl)-5(6)–(3,4,5,6-tetrahydropyrimidin-1-ium-2-yl)benzimidazole chloride], the IC50 in the data set with NCI-H358, in the data set on HCC827 and in the data set on A549 was above 50 µM in each case. Moreover, in data set [1], the efflux ratio at 60 min, 10 µM was below 2. Also, in data set [1], the Papp A→B at 60 min, 10 µM was 0.92 ×10⁻⁶ cm/s. Moreover, the Papp B→A at 60 min, 10 µM in data set [1] was determined as 1.02 ×10⁻⁶ cm/s. The results for the fraction unbound at 4 h, 5 µM in data set [2] (setting [3]) and in data set [2] (setting [4]) were 0.457 and 0.365, respectively. The recovery at 4 h, 5 µM in data set [2] (human plasma) was 91%; in data set [2] (mouse plasma), 87%.
